Measured values as given in patent EP0358152A1, “Diazine-substituted 1-adamantanes, process for their preparation, and their use as medicaments” (priority 1988, dated 1990).
Where “and” joins values, the source holds several entries; their conditions need not be identical. Equal entries are not always repeated.

Experiments:
[1] = tested on: Subtyp H3N2 A/Philippines 2/82; assay type: cell-based, Influenzaviren Typ A
[2] = tested on: Subtyp H2N2 A/Singapore 1/57; assay type: cell-based, Influenzaviren Typ A
[3] = tested on: Subtyp H1N1 A/Brasil 11/78; assay type: cell-based, Influenzaviren Typ A
[4] = tested on: Subtyp H3N2 A/Hongkong 1/68; assay type: cell-based, Influenzaviren Typ A
Typ B B/Singapore 222/79 = assay type: cell-based, Influenzaviren Typ B
A/Krasnodar 101/59 = assay type: cell-based, Influenzaviren Typ A
Influenzaviren vom Typ B = assay: Inhibitory effect on influenza viruses of type B; assay type: cell-based; conditions: statement in words
[5] = tested on: Influenzavirus Typ A Subtyp H1N1 A/Taiwan 1/86; assay type: cell-based

c1cnc(C23CC4CC(CC(C4)C2)C3)cn1 [2-(Adamant-1-yl)-pyrazin, 2-(Adamant-1-yl-)-pyrazin]
ID50 mit Wirkstoff (log 10) [1]: 5,5 log 10
Titerdifferenz (log 10) [1]: 0,33 log 10 and 0,83 log 10
Titerdifferenz (log 10) [2]: 1,51 log 10 and 1,33 log 10 and 1,17 log 10

Nc1nccc(C23CC4CC(CC(C4)C2)C3)n1 [4-(Adamant-1-yl)-2-amino-pyrimidin, 4-(Adamant-1-yl)-2-aminopyrimidin]
Titerdifferenz (log 10) [3]: 2,8 log 10 and 2,0 log 10
Titerdifferenz (log 10) [2]: 1,55 log 10 and 1,67 log 10

c1cc(C23CC4CC(CC(C4)C2)C3)ncn1 [4-(Adamant-1-yl)-pyrimidin]
ID50 mit Wirkstoff (log 10) [1]: 5,17 log 10
Titerdifferenz (log 10) [2]: 1,33 log 10 and 1,5 log 10 and 1,34 log 10

Cc1cncc(C23CC4CC(CC(C4)C2)C3)n1 [6-(Adamant-1-yl)-2-methyl-pyrazin, 6-(Adamant-1-yl)-2-methylpyrazin]
ID50 mit Wirkstoff (log 10) [3]: 3,33 log 10 and 3,67 log 10
Titerdifferenz (log 10) [3]: 1,97 log 10 and 1,66 log 10

Cc1cc(C23CC4CC(CC(C4)C2)C3)ncn1 [6-(Adamant-1-yl)-4-methyl-pyrimidin, 6-(Adamant-1-yl)-4-methylpyrimidin]
ID50 mit Wirkstoff (log 10) [4]: 3,83 log 10
Titerdifferenz (log 10) [4]: 0,92 log 10
ID50 mit Wirkstoff (log 10) [3]: 3,83 log 10 and 3,33 log 10 and 3,0 log 10
ID50 mit Wirkstoff (log 10) [1]: 5,0 log 10 and 5,67 log 10
ID50 mit Wirkstoff (log 10) (Typ B B/Singapore 222/79): 5,67 log 10
Titerdifferenz (log 10) (Typ B B/Singapore 222/79): 0,66 log 10 and 0,5 log 10
ID50 mit Wirkstoff (log 10) (A/Krasnodar 101/59): 2,5 log 10
Titerdifferenz (log 10) (A/Krasnodar 101/59): 2,5 log 10

CC(N)C12CC3CC(CC(C3)C1)C2.Cl (stereo not drawn) [Rimantadin, α-Methyl-1-adamantanmethylaminhydrochlorid]
Hemmwirkung gegenüber Influenzaviren vom Typ B (Influenzaviren vom Typ B): nicht spezifisch wirksam
Titerreduktion (log 10) [1]: 0,17 log 10
ID₅₀ (log 10) mit Wirkstoff [2]: 2,5 log 10
Titerreduktion (log 10) [5]: 1,5 log 10 and 1,84 log 10
